Results on 2 molecules are retold here after patent US20170119907A1, “Targeted Therapeutics” (MEDIVATION TECHNOLOGIES, INC., priority 2014, published 2017).

Assay [1] has as its system Raji cells. The assay can be described thus: Binding to and staining of Raji cells (Example B1b). The class given is cell-based. The following applies: photomicrographs; for binding to Raji cells: FIG. 2B, Example B1b; for binding to and staining of Raji cells: FIG. 4B.
For assay [2], the system named is Raji cells. The assay can be described thus: Binding to Raji cells (visual inspection of staining). The following applies: 10 μM in PBS, 30 min; FIG. 4B. In kind it is cell-based. As for the experimental part: Raji cells were incubated in PBS without Compounds 4 or 20 or with 10 μM Compound 4 or 10 μM Compound 20 in PBS for 30 min and then washed twice with 1 mL PBS. Samples were visually inspected to determine staining

The test system of assay [3] is human MSCs / rabbit dorsal femoral condyle explants. In words: Adherence of calcein-labeled human MSCs to rabbit dorsal femoral condyle explants. The class given is cell-based. Particulars: MSCs incubated with compound (Compound 4: 5 μM or 10 μM), 30 min or 10 min; 475/535 nm; FIG. 6A. The procedure: Human MSCs were labeled with calcein for 30 min, washed with PBS, and incubated with Compound 4 (5 μM or 10 μM) or with PBS for 30 min. Rabbit dorsal femoral condyle explants were then incubated for 30 min with (1) the PBS-incubated, calcein-labeled MSCs, (2) the calcein-labeled MSCs incubated with 5 μM Compound 4, or (3) the calcein-labeled MSCs incubated with 10 μM Compound 4. Explants were washed twice with excess PBS, and the 475/535 nm filter set on the Molecular Imaging Gel Logic system was used to detect the binding of MSCs to the explants by detecting the calcein. In another experiment, the procedure was repeated with two batches of Compound 4, and with Compound 20, with an incubation time of 10 min instead of 30 min.

In assay [4] the test system is rabbit dorsal femoral condyle explants. The assay can be described thus: Binding to and staining of rabbit dorsal femoral condyle explants. Particulars: photomicrographs, FIGS. 5A-B.
For assay [5] the test system is unchanged. The assay can be described thus: Binding to rabbit dorsal femoral condyle explants (fluorescence staining). The following applies: 100 μM in PBS, 30 min; 530/600 nm; FIGS. 5A, 5B. The procedure:
Rabbit dorsal femoral condyle explants were incubated with PBS or 100 μM Compound 4 or Compound 20 in PBS for 30 min. Explants were washed twice in excess PBS. Staining of explants was determined using the 530/600 nm filter set on the Molecular Imaging Gel Logic system.

Assay [6] has as its system Raji cells. In words: Adherence of Raji cells to rabbit dorsal femoral condyle explants. The following applies: photomicrographs, FIG. 6B. In kind it is cell-based.
The test system of assay [7] is Raji cells. The assay can be described thus: Binding to Raji cells (fluorescence, Gel Logic system). In kind it is cell-based. Particulars: 10 μM in PBS; 1, 5, 15 or 30 minutes; 530 nm/600 nm; FIG. 2B. The procedure: 10^6 Raji cells were incubated with 10 μM Compound 4 or 10 μM Compound 20 in PBS or with PBS alone for 1, 5, 15 or 30 minutes. Cells were washed once in PBS and then the fluorescence of Compound 4 or Compound 20 was analyzed in a Gel Logic system with 530 nm/600 nm excitation/emission settings.

In assay [8] the test system is hMSCs. In words: Differentiation of human MSCs to chondrocytes in pellet culture (aggrecan stain). In kind it is cell-based. The following applies: for ECM area (Aggrecan stain): 10 μM, 21 days, Differentiation Medium +, aggrecan ratio relative to cell number; for Differentiation of hMSCs to chondrocytes (in words): compound and differentiation medium, with or without priming, relative to control without differentiation medium. The procedure:
hMSCs (Lonza, Cat No PT-2501) were cultured in complete mesenchymal stem cell culture medium (Lonza, Cat No PT-3238). For differentiation experiments, complete mesenchymal stem cell culture medium was removed, and hMSCs were either incubated for 30 min in chondrocyte differentiation medium containing TGFβ (R&D Systems, Cat No CCM005 and CCM006) (primed condition) or maintained in complete mesenchymal stem cell culture medium for 30 min.
hMSCs were collected, washed in PBS, and incubated in 500 μL of 10 μM Compound 4 or 20 in PBS for 20 min. Cells were washed in PBS and counted. 5×10^5 cells were placed in a 15 mL tube. The cells were centrifuged at 500 g for 7 min, and either 500 μL of maintenance medium (Lonza, Cat No PT-3238) or chondrocyte differentiation medium was added gently. The medium was changed every 2 to 3 days for three weeks, maintaining the 500 μL volume.
After three weeks, the medium was removed, and cell pellets were fixed in 500 μL of a 4% paraformaldehyde (PFA) in PBS solution for 20 min at room temperature. The solution was removed, and 500 μL of a 4% PFA, 15% sucrose in PBS was added, and the mixture was left overnight. The solution was removed, and 500 μL of a 4% PFA, 30% sucrose in PBS was added, then the mixture was left overnight or until the pellet was in the bottom of the tube. The pellet culture was frozen in TISSUE-TEK® O.C.T. compound (Cat No 4583), and 5 μm cuts were made. The slices were fixed on a positive charged slide (Cell Path, Cat No MDB-0102-54A). A hydrophobic pen was used to draw a line around the cuts on the slide.
100-300 μL of blocking solution (1% BSA, 0.3% TRITON® X-100 in PBS) was added on top of the slices which were left for 1 h at RT. The blocking solution was extracted with a micropipette. Primary antibody (goat anti-aggrecan G1-IgD-G2 domain, R&D systems, Cat No AF1220) was diluted 1:20 in blocking solution, and 100-200 μL of this solution was added on top of the slices. The slides were left at 4° C. overnight in a humidified box. The primary antibody solutions were removed, and the slices were washed 3 times with 1% BSA in PBS for 5 min. The lines were redrawn around the slices with the hydrophobic pen. From the incubation with the secondary antibody and on, the samples were kept in the dark to avoid degrading the fluorophore.
The secondary antibodies were diluted 1:100 in blocking solution. 100-200 μL of the secondary antibody solution (donkey anti-goat IgG Alexa fluor 488, Invitrogen, Cat No A11055) was added to the slices. The slices were incubated for 1 h at RT. The slices were washed 3 times with 1% BSA in PBS for 5 min. The lines were redrawn around the slices with the hydrophobic pen.
Slices were stained with 100-200 μL of a 1:2000 dilution of DAPI in PBS for 5 min at RT. The DAPI was removed, and the slices were washed 3 times with PBS for 5 min, then washed a 4th time with distilled water for another 5 min. The slides were left to dry. 30 μL of Fluorescent Mounting Medium was added, and then the slices were covered with a coverslip.

Assay [9] relates to human MSCs. The assay can be described thus: Adherence of human MSCs to rabbit dorsal femoral condyle explants. In kind it is cell-based. Particulars: photomicrographs, FIG. 6A.

Consider `Cc1cc2nc3cc(C)c(NCCCCCCCCNc4cc5c(cc4C)nc4cc(C)c(N)cc4[n+]5-c4ccccc4)cc3[n+](-c3ccccc3)c2cc1N.[Cl-].[Cl-]` [Compound 4, 7,7′-(octane-1,8-diylbis(azanediyl))bis(3-amino-2,8-dimethyl-5-phenylphenazin-5-ium) chloride], for which, in assay [1], the “binding to Raji cells” value is listed as “binding”; the “binding to and staining of Raji cells” value is “bind to and stain”. Moreover, in assay [2], the “Binding to Raji cells (visual staining)” value was “bind to Raji cells”. Further, in [3], the “Adherence of calcein-labeled human MSCs to explants” value is on record as “promote adherence”. The “binding to and staining of rabbit dorsal femoral condyle explants” value in assay [4] was “bind to and stain”. In addition, the “Binding to rabbit dorsal femoral condyle explants (fluorescence)” value in [5] is listed as “strong fluorescence”. Further, the “adherence of Raji cells to rabbit dorsal femoral condyle explants” value in assay [6] is reported as “promote adherence”. In addition, the “Binding to Raji cells (fluorescence)” value in assay [7] was “bind to Raji cells”. In assay [8] (Priming +), the “ECM area (Aggrecan stain)” value is 1.41. Besides, in [8] (Priming −), the “ECM area (Aggrecan stain)” value is reported as 0.74. Moreover, the “Differentiation of hMSCs to chondrocytes (in words)” value in assay [8] is recorded as “induced high levels of differentiation”. Moreover, in assay [9], the “adherence of human MSCs to rabbit dorsal femoral condyle explants” value was “promote adherence”.

For `Cc1cc2nc3cc(C)c(NCCCCCCNC(=O)c4ccc(-c5ccc(C(=O)NCCCCCCNc6cc7c(cc6C)nc6cc(C)c(N)cc6[n+]7-c6ccccc6)cc5)cc4)cc3[n+](-c3ccccc3)c2cc1N.[Cl-].[Cl-]` [Compound 20, (3-amino-7-{[6-({4-[4-({6-[(7-amino-5-chloranuide-2,8-dimethyl-5-phenyl-5λ^6,10-phenazin-5-ylium-3-yl)amino]hexyl}carbamoyl)phenyl]phenyl}formamido)hexyl]amino}-2,8-dimethyl-5-phenyl-5λ^6,10-phenazin-5-ylium-5-e)chloranuide], the “binding to Raji cells” value in assay [1] is “binding”. Also, the “binding to and staining of Raji cells” value in assay [1] was “bind to and stain”. Moreover, the “Binding to Raji cells (visual staining)” value in [2] is reported as “bind to Raji cells”. In addition, the “Adherence of calcein-labeled human MSCs to explants” value in assay [3] is “promote adherence”. Moreover, the “binding to and staining of rabbit dorsal femoral condyle explants” value in assay [4] is “bind to and stain”. In addition, the “Binding to rabbit dorsal femoral condyle explants (fluorescence)” value in [5] is given as “strong fluorescence”. The “adherence of Raji cells to rabbit dorsal femoral condyle explants” value in assay [6] is on record as “promote adherence”. For the same molecule, in assay [7], the “Binding to Raji cells (fluorescence)” value is recorded as “bind to Raji cells”. The entries for the “ECM area (Aggrecan stain)” value in assay [8] (Priming +) and in [8] (Priming −) were 0.97 and 0.74, respectively. Moreover, the “Differentiation of hMSCs to chondrocytes (in words)” value in assay [8] is reported as “induced high levels of differentiation”. In assay [9], the “adherence of human MSCs to rabbit dorsal femoral condyle explants” value was “promote adherence”.
